# Results reported in PubChem BioAssay AID608 (Sanford-Burnham Center for Chemical Genomics, 2007).
# The source made the active and inactive calls. How the calls were made is not given here.
# Target: Peptidyl-prolyl cis-trans isomerase FKBP1A (Homo sapiens) (UniProt P62942)
# Test: FKBP12 binders, biophysical, NMR detection (AID 608)
# Details: NMR binding, purified FKBP12
# Peptidyl-prolyl cis-trans isomerase FKBP1A (Homo sapiens), sequence (P62942 whole entry, looked up): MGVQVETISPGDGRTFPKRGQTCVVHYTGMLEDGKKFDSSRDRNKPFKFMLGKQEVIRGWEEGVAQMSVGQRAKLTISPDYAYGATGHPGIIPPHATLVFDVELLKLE
row,Compound,Kd
1,COc1ccc([C@H]2COc3c(ccc(O)c3OC)C2)c(OC)c1O,> 4 mM (inactive)
2,c1ccc(C[N+]23CCN(CC2)CC3)cc1,> 4 mM (inactive)
3,Nc1ccn(C2O[C@H](CO)[C@@H](O)[C@H]2O)c(=O)n1 (some centres undefined),> 4 mM (inactive)
4,O=C(CC1SC(=O)NC1=O)Nc1ccccc1 (centres undefined),> 4 mM (inactive)
5,c1ccc2c(c1)nc(-c1cscn1)n2CCCCc1nn[nH]n1,inactive
6,CC1=CCc2c(cc3oc(C)cc(=O)c3c2O)OC1,> 4 mM (inactive)
7,CC1CCCN(C/C(O)=C(\C#N)c2nc3ccccc3[nH]2)C1 (centres undefined),> 4 mM (inactive)
8,COC(=O)Cc1cc(=O)n(-c2nc3ccccc3s2)[nH]1,> 4 mM (inactive)
9,S=C(NC1=NCCS1)Nc1ccccc1,> 4 mM (inactive)
10,COc1cc(O)c(C(C)=O)c(OC)c1,> 4 mM (inactive)
11,O=C(Nc1nnc(-c2ccco2)o1)c1ccc([N+](=O)[O-])o1,> 4 mM (inactive)
12,Cc1n[nH]c(=S)[nH]c1=O,> 4 mM (inactive)
13,Cn1nccc1N,> 4 mM (inactive)
14,NCCc1ccc(S(N)(=O)=O)cc1,> 4 mM (inactive)
15,O=C1C(=O)N(CN2CCN(CCO)CC2)c2ccccc21,> 4 mM (inactive)
16,OCC1CCN(c2ncccn2)CC1,> 4 mM (inactive)
17,c1n[nH]cc1-c1cn[nH]c1,> 4 mM (inactive)
18,CSc1nc2[nH]ncc2c(=O)[nH]1,> 4 mM (inactive)
19,COc1cc2c(cc1-c1coc3c4c(c(OC)cc3c1=O)OC(C)(C)C=C4)OCO2,> 4 mM (inactive)
20,c1cc2n(c1)CCNC2c1ccncc1 (centres undefined),> 4 mM (inactive)
21,O=C1CN(C(=O)CN2CCOCC2)c2ccccc2N1,> 4 mM (inactive)
22,Cc1occc1C(=O)Nc1ccc(C(N)=O)cc1,> 4 mM (inactive)
23,COc1cccc2c1CCC1=CC(=O)CC[C@@]12C,> 4 mM (inactive)

row,Compound,Kd
1,C[C@@H]1O[C@@H](O[C@H]2[C@@H](Oc3cc(O)c4c(c3)O[C@H](c3ccc(O)cc3)CC4=O)O[C@H](CO)[C@@H](O)[C@@H]2O)[C@H](O)[C@H](O)[C@H]1O,> 4 mM (inactive)
2,O=[N+]([O-])c1ccc(NS(=O)(=O)N2CCCCC2)cc1,0.06 mM
3,COc1ccc(Cl)cc1NS(=O)(=O)N1CCCCC1,inactive
4,C(=N\c1ncn[nH]1)/c1cccs1,> 4 mM (inactive)
5,Cc1csc(SCC(=O)N2CCCC2)n1,> 4 mM (inactive)
6,Cc1nc(SCC#N)c2c3c(sc2n1)CCC3,> 4 mM (inactive)
7,Cn1c(=O)c2c(ncn2CCNC2=NCCC2)n(C)c1=O,> 4 mM (inactive)
8,S=C1NC(=S)NC(c2ccc3c(c2)OCO3)N1,> 4 mM (inactive)
9,O=C(c1cccs1)N1CCCc2ccccc21,> 4 mM (inactive)
10,Cn1cnc([N+](=O)[O-])c1Sc1ncnc2nc[nH]c12,> 4 mM (inactive)
11,COc1cccc(N2CCNCC2)c1,> 4 mM (inactive)
12,OC1CCCN(Cc2ccccc2)C1 (centres undefined),> 4 mM (inactive)
13,CC(C)=NNC(=O)C(=O)NC(C)(C)C,> 4 mM (inactive)
14,CN1CCN(c2nc3c(c(=O)[nH]2)CCCC3)CC1,> 4 mM (inactive)
15,COc1ccc2c(c1)OC[C@@H](Cc1ccc(OC)c(OC)c1)[C@H]2O,> 4 mM (inactive)
16,NCCCCN,> 4 mM (inactive)
17,CC(=O)c1cc(C(N)=O)c(=S)[nH]c1C,> 4 mM (inactive)
18,CS(=O)(=O)Nc1nnc(Cc2ccccc2)s1,> 4 mM (inactive)
19,Cc1nn(C)c2sc(CO)cc12,> 4 mM (inactive)
20,Cc1nc2ccccc2c2c1C(=O)N(C)C2=O,> 4 mM (inactive)
21,CC1=CC2C(C(C)C)CCC(C)(O)C2CC1 (centres undefined),> 4 mM (inactive)
22,Cc1ccc(-n2cnnn2)c2cccnc12,> 4 mM (inactive)
23,O=C(c1ccccc1)c1ccccc1C(=O)N1CCCC1,> 4 mM (inactive)

row,Compound,Kd
1,O=C(O)c1ccc(-n2ccnc2)cc1,> 4 mM (inactive)
2,CC1=NCCc2c1[nH]c1cc(O)ccc21,> 4 mM (inactive)
3,Cc1cc(C)n(S(=O)(=O)c2ccc(C)c(C)c2C)n1,> 4 mM (inactive)
4,NS(=O)(=O)c1ccc(NC(=O)/C=C\C(=O)O)cc1,> 4 mM (inactive)
5,CCCCCC/C=C\CCCCCCCc1cccc(O)c1C(=O)O,> 4 mM (inactive)
6,Cc1nnc(SCC(=O)NCc2ccccc2)[nH]c1=O,> 4 mM (inactive)
7,NCc1ccc(-c2csnn2)cc1,> 4 mM (inactive)
8,O=C(O)c1ccc2ncccc2c1,> 4 mM (inactive)
9,COc1ccccc1-c1noc(-c2ccncc2)n1,> 4 mM (inactive)
10,CCNS(=O)(=O)c1ccc(OC)c(C)c1,> 4 mM (inactive)
11,CC[C@H](CCC(C)[C@H]1CCC2C3CCC4C[C@@H](O)CC[C@]4(C)C3CC[C@@]21C)C(C)C (some centres undefined),> 4 mM (inactive)
12,Nc1cccc(S(=O)(=O)N2CCCCC2)c1,> 4 mM (inactive)
13,O=C(Nc1nnc(-c2ccncc2)o1)c1cccs1,> 4 mM (inactive)
14,ON=c1ccc2nc3ccccc3nc2cc1,> 4 mM (inactive)
15,O=C(O)CSCc1c(F)cccc1Cl,> 4 mM (inactive)
16,C=C1[C@H]2CC[C@@]3(C)[C@H](c4ccoc4)OC(=O)C[C@]13O[C@H]1C[C@H](O)C(C)(C)[C@H](CC(=O)OC)[C@]12C,> 4 mM (inactive)
17,O=C1CC(C(=O)O)c2ccccc21 (centres undefined),> 4 mM (inactive)
18,COc1cccc2c(=O)n(CC(N)=O)ccc12,> 4 mM (inactive)
19,Cc1ccccc1NC(=O)N1CCOCC1,> 4 mM (inactive)
20,O=C(COc1ccccc1Cl)N1CCCC1,> 4 mM (inactive)
21,CNC(=O)COc1cccc2c1CCNC2=O,> 4 mM (inactive)
22,C=CCc1ccc2c(c1)OCO2,> 4 mM (inactive)
23,c1ccc(SCc2nc(-c3cccnc3)no2)cc1,> 4 mM (inactive)

row,Compound,Kd
1,CN(C)S(=O)(=O)Nc1ccc(Br)cc1F,> 4 mM (inactive)
2,c1ccc2c(c1)CN1CCCC1=N2,> 4 mM (inactive)
3,CNCc1ccccc1,> 4 mM (inactive)
4,O=C(c1cc(-c2ccccc2)on1)N1CCCC1,> 4 mM (inactive)
5,O=C(O)CNC(=O)c1ccccc1,> 4 mM (inactive)
6,CCOC(=O)c1cnc2cc(C)nn2c1C,> 4 mM (inactive)
7,CCc1ccc2oc(-c3cc(N)cc(C)c3O)nc2c1,> 4 mM (inactive)
8,Cc1csc2nc(=O)c3ccccc3n12,> 4 mM (inactive)
9,CS(C)=C1C(=O)NC(=O)N(Cc2ccc(F)cc2)C1=O,> 4 mM (inactive)
10,O=C(O)C1=Cc2ccccc2OC1,> 4 mM (inactive)
11,C/C=C/C(=O)Nc1ccc(NC(C)=O)cc1,> 4 mM (inactive)
12,O=C(Oc1ccc(-c2nnco2)cc1)N1CCOCC1,> 4 mM (inactive)
13,Cn1nc(C(=O)Nc2cccnc2)c2ccccc2c1=O,> 4 mM (inactive)
14,CCc1ccc(OCC(=O)N2CCOCC2)cc1,0.435 mM
15,O=c1[nH]nc(Cc2ccccn2)c2ccccc12,> 4 mM (inactive)
16,NCc1ccc(N2CCOCC2)cc1,> 4 mM (inactive)
17,C/C=C(/C)C(=O)O[C@@H]1[C@H](OC(C)=O)[C@@]2(CO)C(CC1(C)C)C1=CCC3[C@@]4(C)CC[C@H](O[C@@H]5O[C@H](C(=O)O)[C@@H](O[C@@H]6O[C@H](CO)[C@@H](O)[C@H](O)[C@H]6O)[C@H](O)[C@H]5O[C@@H]5O[C@H](CO)[C@@H](O)[C@H](O)[C@H]5O)[C@](C)(CO)C4CC[C@@]3(C)[C@]1(C)C[C@H]2O (some centres undefined),> 4 mM (inactive)
18,Cc1sc2nc(C)n(NC(N)=O)c(=O)c2c1C,> 4 mM (inactive)
19,COc1ccc2c(c1O)-c1c(OC)c(OC)cc3c1[C@H](C2)N(C)CC3,> 4 mM (inactive)
20,CNS(=O)(=O)c1cc(OC)ccc1OC,> 4 mM (inactive)
21,O=C(O)c1ccc(-c2cccs2)cc1,> 4 mM (inactive)
22,COc1ccc(-c2ccc(=O)n(CC(N)=O)n2)cc1,> 4 mM (inactive)
23,Cc1ccc(C)n1NC(=O)c1cccs1,> 4 mM (inactive)

row,Compound,Kd
1,O=C1O[C@H](C(O)CO)C(O)=C1O (some centres undefined),> 4 mM (inactive)
2,CC(=O)Nc1nc2c(s1)C(=O)NCCC2,> 4 mM (inactive)
3,Nc1ncnc2c1ncn2C1O[C@H](COP(=O)(O)O)[C@@H](O)[C@H]1O (some centres undefined),> 4 mM (inactive)
4,COc1cc(/C=C/C(=O)/C=C(O)/C=C/c2ccc(O)c(OC)c2)ccc1O,> 4 mM (inactive)
5,CC(C)(C)c1ccc(SCC(N)=O)cc1,0.455 mM
6,CS(=O)(=O)N1CCN(c2ncccn2)CC1,> 4 mM (inactive)
7,Cn1nnc2cc(C(=O)NCc3ccco3)ccc21,> 4 mM (inactive)
8,CCc1ccc(/C=N/n2cnnc2)cc1,> 4 mM (inactive)
9,O=C(NCc1ccc2c(c1)OCO2)c1cccs1,> 4 mM (inactive)
10,COC(=O)c1ccc2nsnc2c1,> 4 mM (inactive)
11,O=c1ccc2c([nH]1)CCCC2,> 4 mM (inactive)
12,COc1ccc(C)cc1S(=O)(=O)NC1CCCC1,> 4 mM (inactive)
13,O=C(Nc1ccon1)c1cccc(Cl)c1,> 4 mM (inactive)
14,COC(=O)C(O)[C@@H]1C2(C)C(=O)[C@@H](CC3=C4CC(=O)O[C@@H](c5ccoc5)[C@]4(C)CCC32)[C@H](OC(C)=O)C1(C)C (some centres undefined),> 4 mM (inactive)
15,Cc1cc(C)nc(/N=C(/N)N2CCOCC2)n1,> 4 mM (inactive)
16,COCc1cc(Cl)nc(-c2csc(C)n2)n1,> 4 mM (inactive)
17,O=C1CCC(C(=O)NCc2cccnc2)N1 (centres undefined),> 4 mM (inactive)
18,NC1=NC(=O)/C(=C\c2cccc(C(=O)O)c2)S1,> 4 mM (inactive)
19,C[C@@H]1CC[C@@]2(OC1)OC1C(O)C3C4CC[C@H]5C[C@H](O[C@@H]6O[C@H](CO)[C@H](O[C@@H]7O[C@H](CO)[C@@H](O)[C@H](O[C@@H]8OC[C@@H](O)[C@H](O)[C@H]8O)[C@H]7O[C@@H]7O[C@H](CO)[C@H](O)[C@H](O[C@@H]8O[C@H](CO)[C@@H](O)[C@H](O)[C@H]8O)[C@H]7O)[C@H](O)[C@H]6O)[C@H](O)C[C@]5(C)C4CC[C@]3(C)C1[C@@H]2C (some centres undefined),> 4 mM (inactive)
20,Cc1nnsc1C(=O)N(C)c1ccccc1,> 4 mM (inactive)
21,O=C(O)CN1CCNCC1,> 4 mM (inactive)
22,CC1(O)CC2C=CC1C2 (centres undefined),> 4 mM (inactive)
